Results from patent publication US8592600B2, “Solid state forms of racemic ilaprazole” (Il Yang Pharmaceutical Company, Ltd., priority 2006, dated 2013).
Entries after “also recorded” stand apart in the source; their conditions may differ.

Tests used:
[1] = Solubility of racemic ilaprazole forms in various ethanol solutions (100-50% ethanol) with various apparent pHs, 1 hour; format: physicochemical; details: comparison between Forms A, B, F
Experimental: The solubility of racemic ilaprazole, Forms A, B, and F, were analyzed by exposing them to various ethanol solutions having various pHs for 1 hour. Duplicate analysis was performed for each sample on a second day. The solubility in 100% ethanol (with no pH adjustment) is shown in the first column. Various other aqueous solutions (87.5%, 75%, 62.5%, and 50% ethanol) with varying apparent pHs (7, 8, 9, 10, and 11) were also evaluated. All of the values below are the average of two duplicate preparations analyzed on different days.

[2] = Bioavailability study of ilaprazole from 40-mg delayed-release tablets, plasma pharmacokinetics; format: in vivo, human; details: for t1/2z, harmonic mean / tlag, Mean / tmax, Mean: single 5 mg oral dose (table title; text: 40 mg delayed-release tablet); for mean AUC, rank among forms / mean Cmax, rank among forms / mean apparent oral clearance, rank among forms / mean apparent volume of distribution, rank among forms / mean AUC∞ lower than value observed for Form A / mean Cmax lower than value observed for Form A: single 40 mg oral dose; for AUC lower than Form A, point estimate / Cmax lower than Form A, point estimate: ANOVA point estimate, relative to 40-mg tablet as Form A; for half-life, relative: humans, Forms A, B, F compared; for mean AUC∞ lower than value observed for Form A / mean Cmax lower than value observed for Form A: mean values; for lower bound of 90% confidence interval for ratio of central values, AUC / lower bound of 90% confidence interval for ratio of central values, AUC∞ / lower bound of 90% confidence interval for ratio of central values, Cmax: relative to Form A (Regimen A), bioequivalence limit 0.80; for AUCt, Point Estimate (ratio of central values) vs. Regimen A / AUC∞, Point Estimate (ratio of central values) vs. Regimen A / Cmax, Point Estimate (ratio of central values) vs. Regimen A: relative to Regimen A (Form A), Regimen B = Form B, Regimen C = Form F, single 40-mg delayed-release tablet
Excerpt: The bioavailability of ilaprazole from delayed-release tablets containing racemic ilaprazole, Form A, F, and B. This study were to assessed the bioavailability of ilaprazole from ilaprazole 40-mg delayed-release tablets manufactured as described in Example 8.
The subjects were randomly assigned in equal numbers to one of three sequence groups (Table 32).
Subjects received all regimens in a crossover fashion, according to the sequence group to which they were randomized. For each period, confinement began on Day 1 and ended on Day 2 after all procedures had been completed. There was a washout interval of at least 5 days between the doses of each period. Each subject received 3 doses of racemic ilaprazole 40 mg, each dose administered with 240 mL of water. On Day 1 of each period, subjects received the regimen to which they had been assigned at approximately 0800 hours. Subjects were fasted for 10 hours prior to dosing and remained fasted until 4 hours postdose when a standardized lunch was served.
Ilaprazole, ilaprazole sulfide and ilaprazole sulfone plasma concentrations were determined from 3 mL blood samples collected starting on Day 1 at 0 hour (predose), and 0.5, 1, 1.5, 2, 3, 4, 5, 6, 8, 10, 12, 14, 16, 20, 24, 28 and 32 hours postdose in each period. Plasma concentrations of ilaprazole were determined using a validated LC-MS/MS method at PPD (Middleton, Wis.). The lower limit of quantitation (LLOQ) for ilaprazole and its metabolites was 5.00 ng/mL with a 0.100 mL aliquot of plasma.
Pharmacokinetic parameters for ilaprazole were estimated using standard noncompartmental methods with WinNonlin Professional Version 4.1 (Pharsight Co., Mountain View, Calif.).
Pharmacokinetic endpoints included time to reach the first quantifiable concentration (tlag), time to reach the peak concentration (tmax), the peak plasma concentration (Cmax), area under the plasma concentration versus time curve (AUC) from time zero to the last quantifiable concentration (AUCt) and to infinity (AUC∞), terminal-phase elimination half-life (t1/2z), apparent oral clearance (CL/F) and apparent volume of distribution (Vz/F).
For ilaprazole tlag, tmax, and the natural logarithms of Cmax and AUCs, an analyses of variance (ANOVA) model was fitted that included fixed effects of sequence, period, and crystal form as well as a random effect of subject nested within sequence. Pairwise comparisons between racemic ilaprazole, Forms B or F and Form A, were conducted. Ninety percent confidence intervals for relative bioavailability between regimens were computed.

[3] = Solid state stability of the crystalline forms; format: physicochemical
[4] = Dynamic Vapor Sorption/Desorption (DVS); format: physicochemical; details: for weight loss at 5% RH / weight loss from 95 to 5% RH / weight gain from 5 to 95% RH: DVS isotherm; for weight loss from 95 to 5% RH: desorption; for weight gain from 5 to 95% RH: sorption
Experimental: Dynamic Vapor Sorption/Desorption (DVS): Data were collected on a VTI SGA-100 moisture balance system. For sorption isotherms, a sorption range of 5 to 95% relative humidity (RH) and a desorption range of 95 to 5% RH in 10% RH increments were used for analysis. The samples were not dried prior to analysis. Equilibrium criteria used for analysis were less than 0.0100% weight change in 5 minutes with a maximum equilibration time of 3 hours if the weight criterion was not met. Data were not corrected for the initial moisture content of the samples.

[5] = Dissolution rate of delayed release tablets, 40 mg (USP <711>, Delayed Release Method A); format: physicochemical; details: 40 mg tablet, dissolution buffer
Experimental: Delayed release tablets containing 40 mg racemic ilaprazole, Form A, B, or F, were prepared and the dissolution rates of the tablets studied. The tablets were identical, with the exception of the crystalline form of ilaprazole. The qualitative and quantitative compositions of racemic ilaprazole delayed release tablets, 40 mg (inclusive of the compositions made using Forms A, B, and F) are described in Table 30. The dissolution rate procedure was modified to be consistent with USP <711>, Delayed Release Method A and to change the UV detection wavelength in the acid stage of the test. For the acid stage, a wavelength of 340 nm was used, and for the buffer stage, a wavelength of 306 nm was used. The desired dissolution profile was Q=70% in 60 minutes.

[6] = tested on: gastric acid; experiment: Phase 1 and Phase 2 clinical studies conducted with ilaprazole; format: in vivo, human
[7] = human, plasma, po, 40 mg, plasma ilaprazole, healthy adult subjects, single 40 mg oral dose (table title; text: 40 mg delayed-release tablet), fasted
[8] = plasma ilaprazole, healthy adult subjects, fasted
[9] = plasma ilaprazole, healthy adult subjects, single 40 mg oral dose (table title; text: 40 mg delayed-release tablet), fasted

Compound	t1/2z, harmonic mean [2, 8]	tlag, Mean [2, 8]	CL/F, Mean [2, 9]	t1/2z, arithmetic mean [2, 9]	mean AUC, rank among forms [2]	mean Cmax, rank among forms [2]	mean apparent oral clearance, rank among forms [2]	mean apparent volume of distribution, rank among forms [2]	hygroscopicity [4]	weight loss at 5% RH [4]	weight loss from 95 to 5% RH [4]	weight gain from 5 to 95% RH [4]	AUC lower than Form A, point estimate [2]	Cmax lower than Form A, point estimate [2]	half-life, relative [2]	mean AUC∞ lower than value observed for Form A [2]	mean Cmax lower than value observed for Form A [2]	tmax, Mean [2, 8]	AUCt, Mean [2, 9]	relative solubility in aqueous solutions/solvents [1]	further results
COc1ccnc(C[S+]([O-])c2nc3cc(-n4cccc4)ccc3[nH]2)c1C (racemic) [Form A, 2[[(4-methoxy-3-methyl-2-pyridinyl)-methyl]sulfinyl]-5-(1H-pyrrol-1-yl) 1H-Benzimidazole]	(6.95) h	1.16 h	9.34 L/h	8.89 h	highest	highest	lowest	lowest	not hygroscopic	0.06%	0.13%	0.10%								A<F<B; also recorded: least soluble in aqueous solutions	AUC(0-inf) [2, 7]: 5450 ng·h/mL; AUC(0-t) [2, 7]: 5070 ng·h/mL; Cmax [2, 7]: 652 ng/mL; Tmax [2, 7]: 4.14 h; Vd/F ([2]; human, plasma, po, 40 mg, plasma ilaprazole, healthy adult subjects, single 40 mg oral dose (table title; text: 40 mg delayed-release tablet), fasted, read-out: Vz/F, Mean): 112 L; thermodynamic stability among crystalline forms [3]: most thermodynamically stable
COc1ccnc(C[S+]([O-])c2nc3cc(-n4cccc4)ccc3[nH]2)c1C (racemic) [Form B, 2[[(4-methoxy-3-methyl-2-pyridinyl)-methyl]sulfinyl]-5-(1H-pyrrol-1-yl) 1H-Benzimidazole]	(7.76) h	1.22 h	11.70 L/h	9.48 h	lowest	lowest	highest	highest	not hygroscopic	0.03%	0.00%	0.04%	~24%	approximately 17%	greater half-life than Form A	~25%	approximately 20%	3.50 h	3812.50 ng·h/mL	A<F<B; also recorded: more soluble in aqueous solvents than Form A	dissolution of delayed release tablet, relative [5]: relatively slower dissolution profile; also recorded: slower to wet and dissolve in the dissolution buffer than Form A and Form F; AUC∞, Mean [2, 9]: 4087.99 ng·h/mL; Cmax, Mean [2, 9]: 522.51 ng/mL; lower bound of 90% confidence interval for ratio of central values, AUC [2]: < 0.80; lower bound of 90% confidence interval for ratio of central values, AUC∞ [2]: < 0.80; lower bound of 90% confidence interval for ratio of central values, Cmax [2]: < 0.80; AUCt, Point Estimate (ratio of central values) vs. Regimen A [2]: 0.7630; AUC∞, Point Estimate (ratio of central values) vs. Regimen A [2]: 0.7609; Cmax, Point Estimate (ratio of central values) vs. Regimen A [2]: 0.8292; long term stability or shelf life [3]: good long term stability or shelf life
COc1ccnc(C[S+]([O-])c2nc3cc(-n4cccc4)ccc3[nH]2)c1C (stereo not shown) [ilaprazole, 2[[(4-methoxy-3-methyl-2-pyridinyl)-methyl]sulfinyl]-5-(1H-pyrrol-1-yl) 1H-Benzimidazole]																					suppression of gastric acid ([6]; Phase 1 clinical studies, at the doses studied): suppression of gastric acid occurs over a 24-hour period; healing of acid-related gastric and duodenal ulcers ([6]; Phase 2 clinical studies): promoted rapid healing; symptomatic relief ([6]; Phase 2 clinical studies, patients with gastric-acid related disorders): provided symptomatic relief

More lines, main results first:

t1/2z, harmonic mean [2, 8]	tlag, Mean [2, 8]	CL/F, Mean [2, 9]	t1/2z, arithmetic mean [2, 9]	mean AUC, rank among forms [2]	mean Cmax, rank among forms [2]	mean apparent oral clearance, rank among forms [2]	mean apparent volume of distribution, rank among forms [2]	hygroscopicity [4]	weight loss at 5% RH [4]	weight loss from 95 to 5% RH [4]	weight gain from 5 to 95% RH [4]	AUC lower than Form A, point estimate [2]	Cmax lower than Form A, point estimate [2]	half-life, relative [2]	mean AUC∞ lower than value observed for Form A [2]	mean Cmax lower than value observed for Form A [2]	tmax, Mean [2, 8]	AUCt, Mean [2, 9]	Compound	relative solubility in aqueous solutions/solvents [1]	further results
(7.29) h	1.18 h	11.29 L/h	9.66 h					slightly hygroscopic	0.04%	1.33%	1.05%	15-17%	approximately 15%	longest half-life	~14%	approximately 15%	4.01 h	4256.66 ng·h/mL	COc1ccnc(C[S+]([O-])c2nc3cc(-n4cccc4)ccc3[nH]2)c1C (racemic) [Form F, 2[[(4-methoxy-3-methyl-2-pyridinyl)-methyl]sulfinyl]-5-(1H-pyrrol-1-yl) 1H-Benzimidazole]	A<F<B; also recorded: more soluble in aqueous solvents than Form A	AUC∞, Mean [2, 9]: 4672.37 ng·h/mL; Cmax, Mean [2, 9]: 554.18 ng/mL; lower bound of 90% confidence interval for ratio of central values, AUC [2]: < 0.80; lower bound of 90% confidence interval for ratio of central values, AUC∞ [2]: < 0.80; lower bound of 90% confidence interval for ratio of central values, Cmax [2]: < 0.80; AUCt, Point Estimate (ratio of central values) vs. Regimen A [2]: 0.8288; AUC∞, Point Estimate (ratio of central values) vs. Regimen A [2]: 0.8456; Cmax, Point Estimate (ratio of central values) vs. Regimen A [2]: 0.8456
									0.1%	4.2%	4.2%								COc1ccnc(C[S+]([O-])c2nc3cc(-n4cccc4)ccc3[nH]2)c1C (racemic) [Form I, 2[[(4-methoxy-3-methyl-2-pyridinyl)-methyl]sulfinyl]-5-(1H-pyrrol-1-yl) 1H-Benzimidazole]		
